According to US12533343B2, “Method for preparing (−)-cibenzoline succinate” (CELLTRION, INC., priority 2018, dated 2026):

Legend:
Assay type in all cases: physicochemical
Hygroscopicity = conditions: 25±1° C., 24 hours, 80±2% RH
Description: The hygroscopicity was to describe the water vapor uptake behavior of solid by mass changes.
The results of the hygroscopicity study shall be interpreted based on the criteria in Table 11 (ref. EUROPEAN PHARMACOPOEIA 9.0 volume 1 5.11. characters section in monographs).

[1] = Long-term storage stability test; conditions: for Assay by potentiometry (on dried basis) / Chiral purity by HPLC S-Isomer Content / Identification by IR / Loss on drying at 105° C. for 3 hours / Related substance by HPLC Single maximum unknown impurity / Related substance by HPLC Total impurity: 25±2° C., RH 60±5%
Method: And related substances was measured by HPLC under below conditions.
(§1) <Packing details>—Primary packing: (−)-Cibenzoline succinic acid salt obtained by Example 4 shall be packed in transparent LDPE bag, twist and tie with Strip seal. • Secondary packing: The above bag shall be kept in Black color LDPE bag, twist and tie with Strip seal. • Tertiary packing: The above bag shall be kept Triple laminated aluminum bag with heat seal. Keep this bag in HDPE drum and close with lid.

Particle size analysis = assay: Particle size analysis
Description: The powder sample was dispersed with a dispersion pressure of 2 bar.
The accompanying Table 9 (ref. 2019 USP 42 NF 37 Volume 4 physical tests <811> powder fineness) indicates particle size distribution associated with corresponding values.

[2] = Accelerated stability test; conditions: for Assay by potentiometry (on dried basis) / Chiral purity by HPLC S-Isomer Content / Identification by IR / Loss on drying at 105° C. for 3 hours / Related substance by HPLC Single maximum unknown impurity / Related substance by HPLC Total impurity: 40±2° C., RH 75±5%
Description: as §1

[3] = powder dispersed at 2 bar, listed as (−)-Cibenzoline succinic acid salt

Compound: O=C(O)CCC(=O)O.c1ccc(C2(c3ccccc3)C[C@@H]2C2=NCCN2)cc1 [Example 4, (−)-Cibenzoline succinic acid salt]
- Mass change (Hygroscopicity): 0.01%
- Hygroscopicity evaluation (Hygroscopicity; Ph. Eur. criteria): Non hygroscopic
- Assay by potentiometry (on dried basis) ([1]; 1-month): 99.9 % w/w
- Chiral purity by HPLC S-Isomer Content ([1]; 1-month): 100.0 % Area normalization
- Identification by IR ([1]; 1-month): Complies
- Loss on drying at 105° C. for 3 hours ([1]; 1-month): 0.04 % w/w
- Related substance by HPLC Single maximum unknown impurity ([1]; 1-month): 0.01 % w/w
- Related substance by HPLC Total impurity ([1]; 1-month): 0.01 % w/w
- Assay by potentiometry (on dried basis) ([1]; 2-month): 100.1 % w/w
- Chiral purity by HPLC S-Isomer Content ([1]; 2-month): 100.0 % Area normalization
- Identification by IR ([1]; 2-month): Complies
- Loss on drying at 105° C. for 3 hours ([1]; 2-month): 0.07 % w/w
- Related substance by HPLC Single maximum unknown impurity ([1]; 2-month): 0.01 % w/w
- Related substance by HPLC Total impurity ([1]; 2-month): 0.01 % w/w
- Assay by potentiometry (on dried basis) ([1]; 3-month): 100.2 % w/w
- Chiral purity by HPLC S-Isomer Content ([1]; 3-month): 100.0 % Area normalization
- Identification by IR ([1]; 3-month): Complies
- Loss on drying at 105° C. for 3 hours ([1]; 3-month): 0.14 % w/w
- Assay by potentiometry (on dried basis) ([1]; 6-month): 100.2 % w/w
- Chiral purity by HPLC S-Isomer Content ([1]; 6-month): 100.0 % Area normalization
- Identification by IR ([1]; 6-month): Complies
- Loss on drying at 105° C. for 3 hours ([1]; 6-month): 0.18 % w/w
- Assay by potentiometry (on dried basis) ([1]; Initial): 100.1 % w/w
- Chiral purity by HPLC S-Isomer Content ([1]; Initial): 100.0 % Area normalization
- Identification by IR ([1]; Initial): Complies
- Loss on drying at 105° C. for 3 hours ([1]; Initial): 0.11 % w/w
- Related substance by HPLC Single maximum unknown impurity ([1]; Initial): 0.01 % w/w
- Related substance by HPLC Total impurity ([1]; Initial): 0.01 % w/w
- change of (S)-form to (R)-form ([1]; long-term storage conditions): not changed to (R)-form
- stability conclusion ([1]; long-term storage conditions): excellent stability
- white crystalline powder form over storage ([1]; six months, long-term storage conditions): uniformly maintained
- Classification (particle size) (Particle size analysis; USP <811> powder fineness): Very fine
- d10 (Particle size analysis; powder dispersed at 2 bar): 15.2 μm
- d50 (Particle size analysis; powder dispersed at 2 bar): 104 μm
- d90 (Particle size analysis; powder dispersed at 2 bar): 265 μm
- d50 (Particle size analysis; [3]): 104.0 μm
- d90 (Particle size analysis; [3]): 265.0 μm
- Assay by potentiometry (on dried basis) ([2]; 1-month): 100.1 % w/w
- Chiral purity by HPLC S-Isomer Content ([2]; 1-month): 100.0 % Area normalization
- Identification by IR ([2]; 1-month): Complies
- Loss on drying at 105° C. for 3 hours ([2]; 1-month): 0.15 % w/w
- Related substance by HPLC Single maximum unknown impurity ([2]; 1-month): 0.01 % w/w
- Related substance by HPLC Total impurity ([2]; 1-month): 0.01 % w/w
- Assay by potentiometry (on dried basis) ([2]; 2-month): 100.3 % w/w
- Chiral purity by HPLC S-Isomer Content ([2]; 2-month): 100.0 % Area normalization
- Identification by IR ([2]; 2-month): Complies
- Loss on drying at 105° C. for 3 hours ([2]; 2-month): 0.12 % w/w
- Assay by potentiometry (on dried basis) ([2]; 3-month): 100.1 % w/w
- Chiral purity by HPLC S-Isomer Content ([2]; 3-month): 100.0 % Area normalization
- Identification by IR ([2]; 3-month): Complies
- Loss on drying at 105° C. for 3 hours ([2]; 3-month): 0.09 % w/w
- Assay by potentiometry (on dried basis) ([2]; 6-month): 99.6 % w/w
- Chiral purity by HPLC S-Isomer Content ([2]; 6-month): 100.0 % Area normalization
- Identification by IR ([2]; 6-month): Complies
- Loss on drying at 105° C. for 3 hours ([2]; 6-month): 0.10 % w/w
- Assay by potentiometry (on dried basis) ([2]; Initial): 100.1 % w/w
- Chiral purity by HPLC S-Isomer Content ([2]; Initial): 100.0 % Area normalization
- Identification by IR ([2]; Initial): Complies
- Loss on drying at 105° C. for 3 hours ([2]; Initial): 0.11 % w/w
- Related substance by HPLC Single maximum unknown impurity ([2]; Initial): 0.01 % w/w
- Related substance by HPLC Total impurity ([2]; Initial): 0.01 % w/w
- stability conclusion ([2]; accelerated conditions): excellent stability
- change of (S)-form to (R)-form ([2]; accelerated stability test section): not changed to (R)-form
- white crystalline powder form over storage ([2]; six months, accelerated conditions): uniformly maintained
